# According to PubChem BioAssay (NCI):
#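 Each compound was tested at five concentrations against cells in 96-well plates for 48 hours. At the GI50, growth is halved. TGI: total growth inhibition.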
# Key:
# Assay in all cases: DTP human tumour cell line panel, 48 h
# [1] = system: 786-0 renal
# [2] = system: A498 renal
# [3] = system: A549 NSCLC
# [4] = system: ACHN renal
# [5] = system: CAKI-1 renal
# [6] = system: COLO 205 colon
# [7] = system: EKVX NSCLC
# [8] = system: HCC-2998 colon
# [9] = system: HCT-116 colon
# [10] = system: HCT-15 colon
# [11] = system: HL-60(TB) leukemia
# [12] = system: HOP-18 NSCLC
# [13] = system: HOP-62 NSCLC
# [14] = system: HOP-92 NSCLC
# [15] = system: HT29 colon
# [16] = system: IGROV1 ovarian
# [17] = system: K-562 leukemia
# [18] = system: KM12 colon
# [19] = system: KM20L2 colon
# [20] = system: LOX IMVI melanoma
# [21] = system: M14 melanoma
# [22] = system: MALME-3M melanoma
# [23] = system: MOLT-4 leukemia
# [24] = system: NCI-H226 lung
# [25] = system: NCI-H23 lung
# [26] = system: NCI-H460 lung
# [27] = system: NCI-H522 lung
# [28] = system: OVCAR-3 ovarian
# [29] = system: OVCAR-4 ovarian
# [30] = system: OVCAR-5 ovarian
# [31] = system: OVCAR-8 ovarian
# [32] = system: RPMI-8226 leukemia
# [33] = system: RXF 393 renal
# [34] = system: SF-268 CNS
# [35] = system: SF-295 CNS
# [36] = system: SF-539 CNS
# [37] = system: SK-MEL-2 melanoma
# [38] = system: SK-MEL-28 melanoma
# [39] = system: SK-MEL-5 melanoma
# [40] = system: SK-OV-3 ovarian
# [41] = system: SN12C renal
# [42] = system: SNB-19 CNS
# [43] = system: SNB-75 CNS
# [44] = system: SR leukemia
# [45] = system: SW-620 colon
# [46] = system: TK-10 renal
# [47] = system: U251 CNS
# [48] = system: UACC-257 melanoma
# [49] = system: UACC-62 melanoma
# [50] = system: UO-31 renal
# [51] = system: CCRF-CEM leukemia
# [52] = system: DLD-1 colon
# [53] = system: DMS 114 small cell lung
# [54] = system: LXFL 529 NSCLC
# [55] = system: M19-MEL melanoma
compound,measurement,setting,value
O=C([CH-]C(=O)c1ccccc1)c1ccccc1.[CH3-].[CH3-].[CH3-].[Sn+4],GI50,[1],10.2 µM
same,TGI,[1],33.1 µM
same,GI50,[2],35.4 µM
same,TGI,[2],> 100 µM
same,GI50,[3],17.1 µM
same,TGI,[3],> 100 µM
same,GI50,[4],21 µM
same,TGI,[4],> 100 µM
same,GI50,[5],13.6 µM
same,TGI,[5],> 100 µM
same,GI50,[6],17.8 µM
same,TGI,[6],35.8 µM
same,GI50,[7],33.1 µM
same,TGI,[7],> 100 µM
same,GI50,[8],18.7 µM
same,TGI,[8],47.5 µM
same,GI50,[9],5.95 µM
same,TGI,[9],19.1 µM
same,GI50,[10],5.51 µM
same,TGI,[10],27.3 µM
same,GI50,[11],2.67 µM
same,TGI,[11],16 µM
same,GI50,[12],39 µM
same,TGI,[12],> 100 µM
same,GI50,[13],22.9 µM
same,TGI,[13],94.9 µM
same,GI50,[14],27.8 µM
same,TGI,[14],67.3 µM
same,GI50,[15],19.2 µM
same,TGI,[15],60.3 µM
same,GI50,[16],33.1 µM
same,TGI,[16],> 100 µM
same,GI50,[17],4.92 µM
same,TGI,[17],23.6 µM
same,GI50,[18],18.1 µM
same,TGI,[18],> 100 µM
same,GI50,[19],16.3 µM
same,TGI,[19],58 µM
same,GI50,[20],7.95 µM
same,TGI,[20],25.9 µM
same,GI50,[21],14.7 µM
same,TGI,[21],29.5 µM
same,GI50,[22],10.7 µM
same,TGI,[22],29.6 µM
same,GI50,[23],3.18 µM
same,TGI,[23],13.6 µM
same,GI50,[24],6.62 µM
same,TGI,[24],65.7 µM
same,GI50,[25],18.4 µM
same,TGI,[25],63.4 µM
same,GI50,[26],6.89 µM
same,TGI,[26],> 100 µM
same,GI50,[27],11.8 µM
same,TGI,[27],24.2 µM
same,GI50,[28],12.7 µM
same,TGI,[28],71.8 µM
same,GI50,[29],8.81 µM
same,TGI,[29],56.1 µM
same,GI50,[30],37.2 µM
same,TGI,[30],86.5 µM
same,GI50,[31],8.25 µM
same,TGI,[31],53.8 µM
same,GI50,[32],4.99 µM
same,TGI,[32],26.2 µM
same,GI50,[33],10.6 µM
same,TGI,[33],31.9 µM
same,GI50,[34],12.9 µM
same,TGI,[34],81.3 µM
same,GI50,[35],6.68 µM
same,TGI,[35],31.5 µM
same,GI50,[36],21.7 µM
same,TGI,[36],> 100 µM
same,GI50,[37],7.68 µM
same,TGI,[37],56.9 µM
same,GI50,[38],15.6 µM
same,TGI,[38],47.1 µM
same,GI50,[39],8.21 µM
same,TGI,[39],35.1 µM
same,GI50,[40],27.1 µM
same,TGI,[40],70.1 µM
same,GI50,[41],17.3 µM
same,TGI,[41],> 100 µM
same,GI50,[42],14.8 µM
same,TGI,[42],73 µM
same,GI50,[43],19.4 µM
same,TGI,[43],> 100 µM
same,GI50,[44],1.93 µM
same,TGI,[44],11.5 µM
same,GI50,[45],12.3 µM
same,TGI,[45],26 µM
same,GI50,[46],31.7 µM
same,TGI,[46],84.9 µM
same,GI50,[47],6.87 µM
same,TGI,[47],52 µM
same,GI50,[48],22.2 µM
same,TGI,[48],60.8 µM
same,GI50,[49],12.2 µM
same,TGI,[49],65.8 µM
same,GI50,[50],12 µM
same,TGI,[50],40.4 µM
C[CH2][Ge]([CH2]C)([CH2]C)[O]C(=O)C([O][Ge]([CH2]C)([CH2]C)[CH2]C)c1ccccc1 (configuration not stated),GI50,[1],22.4 µM
same,TGI,[1],74.3 µM
same,GI50,[2],19.2 µM
same,TGI,[2],67.5 µM
same,GI50,[3],12.7 µM
same,TGI,[3],56.4 µM
same,GI50,[4],15 µM
same,TGI,[4],51.3 µM
same,GI50,[5],19.2 µM
same,TGI,[5],44.9 µM
same,GI50,[51],20.6 µM
same,TGI,[51],> 100 µM
same,GI50,[6],22.1 µM
same,TGI,[6],55.7 µM
same,GI50,[52],20.3 µM
same,TGI,[52],> 100 µM
same,GI50,[53],5.84 µM
same,TGI,[53],31.6 µM
same,GI50,[7],9.4 µM
same,TGI,[7],75.1 µM
same,GI50,[8],19.2 µM
same,TGI,[8],38.5 µM
same,GI50,[9],13.9 µM
same,TGI,[9],30.2 µM
same,GI50,[10],14 µM
same,TGI,[10],30 µM
same,GI50,[11],14.7 µM
same,TGI,[11],38.9 µM
same,GI50,[12],26.7 µM
same,TGI,[12],59 µM
same,GI50,[13],19.5 µM
same,TGI,[13],42.8 µM
same,GI50,[14],4.32 µM
same,TGI,[14],45.9 µM
same,GI50,[15],16.4 µM
same,TGI,[15],46.4 µM
same,GI50,[16],29.1 µM
same,TGI,[16],> 100 µM
same,GI50,[17],14.3 µM
same,TGI,[17],46.1 µM
same,GI50,[18],11.9 µM
same,TGI,[18],26.1 µM
same,GI50,[19],17 µM
same,TGI,[19],42.8 µM
same,GI50,[20],12 µM
same,TGI,[20],24.5 µM
same,GI50,[54],9.67 µM
same,TGI,[54],44.9 µM
same,GI50,[21],17.1 µM
same,TGI,[21],44.2 µM
same,GI50,[55],16.9 µM
same,TGI,[55],42.9 µM
same,GI50,[22],16.8 µM
same,TGI,[22],> 100 µM
same,GI50,[23],23.8 µM
same,TGI,[23],> 100 µM
same,GI50,[24],25.7 µM
same,TGI,[24],88 µM
same,GI50,[25],10.1 µM
same,TGI,[25],44.3 µM
same,GI50,[26],16.3 µM
same,TGI,[26],> 100 µM
same,GI50,[27],11 µM
same,TGI,[27],27.3 µM
same,GI50,[28],16.2 µM
same,TGI,[28],37.3 µM
same,GI50,[29],6.36 µM
same,TGI,[29],> 100 µM
same,GI50,[30],16.3 µM
same,TGI,[30],74.1 µM
same,GI50,[31],18.2 µM
same,TGI,[31],97.9 µM
same,GI50,[32],11.2 µM
same,TGI,[32],> 100 µM
same,TGI,[33],16.1 µM
same,GI50,[34],25.8 µM
same,TGI,[34],> 100 µM
same,GI50,[35],14.5 µM
same,TGI,[35],41 µM
same,GI50,[36],17.1 µM
same,TGI,[36],40.5 µM
same,GI50,[38],24.6 µM
same,TGI,[38],> 100 µM
same,GI50,[39],11.8 µM
same,TGI,[39],26.8 µM
same,GI50,[40],11.1 µM
same,TGI,[40],31.7 µM
same,GI50,[41],18.2 µM
same,TGI,[41],82.8 µM
same,GI50,[42],32.5 µM
same,TGI,[42],96.1 µM
same,GI50,[43],18.3 µM
same,TGI,[43],62.7 µM
same,GI50,[44],14.5 µM
same,TGI,[44],75.4 µM
same,GI50,[45],18.9 µM
same,TGI,[45],42.2 µM
same,GI50,[46],47.6 µM
same,TGI,[46],> 100 µM
same,GI50,[47],17.2 µM
same,TGI,[47],41.4 µM
same,GI50,[48],15.2 µM
same,TGI,[48],58.4 µM
same,GI50,[49],14.5 µM
same,TGI,[49],30.7 µM
same,GI50,[50],13 µM
same,TGI,[50],28.7 µM
